Results published in patent publication US20250368635A1, “HETEROARYL DERIVATIVE COMPOUND, AND USES THEREOF” (VORONOI, INC., priority 2022, published 2025).

Tested on: Ba/F3 cells expressing EGFR Del19/C797S (EGFR DC)
Experiment: Inhibition of proliferation of Ba/F3 cells expressing EGFR Del19/C797S (CellTiter-Glo, 72 h)
Assay type: cell-based
Settings: Mus musculus, BaF3, 72 hours treatment
Experimental: (§1) The following experiment was performed to evaluate the inhibitory activity of the compounds according to the present invention on the proliferation of Ba/F3 cells expressing EGFR Del19/C797S (EGFR DC) and EGFR L858R/C797S (EGFR LC) mutations.
(§2) Ba/F3 cells were cultured using medium (RPMI-1640) containing 10% fetal bovine serum (FBS) and 5 ng/ml IL-3 (R&D Systems). The transduced Ba/F3 cells were cultured by adding 1 μg/ml puromycin (Invitrogen) to the same medium.
(§3) 24 hours prior to treatment with compounds, 3,000 to 5,000 cells were seeded on a well plate (white clear bottom 96 well plate, Corning). The compounds were diluted in dimethyl sulfoxide (3-fold dilution, total of 12 concentrations) and injected at 1 μl each so that the final concentration was 0.2 nM to 5 μM. After 72 hours post treatment with compounds, living cells were stored at room temperature for 10 minutes using CellTiter-Glo luminescent cell-viability reagent (Promega), and the luminescence intensity thereof was measured using a reader (Synergy Neo, Biotek). Each test was repeated three times. The result values were calculated as a cell growth rate (%) compared to the control group. A graph was created using the GraphPad Prism version 8.3.0 program, and GI50 values were calculated.

SMILES | GI50 [nM]
COc1cc(N2CCC3(CC2)CC3(F)F)c(-c2cnn(C)c2)cc1Nc1cc(N2OCC[C@@H]2c2cccc(F)c2F)ncn1 [Example 32, (R)-N-(4-(1,1-difluoro-6-azaspiro[2.5]octan-6-yl)-2-methoxy-5-(1-methyl-1H-pyrazol-4-yl)phenyl)-6-(3-(2,3-difluorophenyl)isoxazolidin-2-yl)pyrimidin-4-amine] | 100 to 1000
COc1cc(N2CCC3(CC2)CCN(C(C)(C)CF)CC3)c(-c2cn(C)nc2F)cc1Nc1cc(N2OCC[C@@H]2c2cccc(F)c2F)ncn1 [Example 1, (R)-6-(3-(2,3-difluorophenyl)isoxazolidin-2-yl)-N-(5-(3-fluoro-1-methyl-1H-pyrazol-4-yl)-4-(9-(1-fluoro-2-methylpropan-2-yl)-3,9-diazaspiro[5.5]undecan-3-yl)-2-methoxyphenyl)pyrimidin-4-amine] | < 100
COc1cc(N2CCC3(CC2)CCN(C(C)(C)CF)CC3)c(-c2cnn(C)c2)cc1Nc1cc(N2OCC[C@@H]2c2ccccc2)ncn1 [Example 10, (R)-N-(4-(9-(1-fluoro-2-methylpropan-2-yl)-3,9-diazaspiro[5.5]undecan-3-yl)-2-methoxy-5-(1-methyl-1H-pyrazol-4-yl)phenyl)-6-(3-phenylisoxazolidin-2-yl)pyrimidin-4-amine] | < 100
COc1cc(C23CCOCC2C3(F)F)c(-c2cnn(C)c2)cc1Nc1cc(N2OCC[C@@H]2c2cccc(F)c2F)ncn1 (stereo partly drawn) [Example 60, N-(4-(7,7-difluoro-3-oxabicyclo[4.1.0]heptan-6-yl)-2-methoxy-5-(1-methyl-1H-pyrazol-4-yl)phenyl)-6-((R)-3-(2,3-difluorophenyl)isoxazolidin-2-yl)pyrimidin-4-amine] | 100 to 1000
COc1cc(N2CC3(CCOCC3)C2)c(-c2cnn(C)c2)cc1Nc1cc(N2OCC[C@@H]2c2cccc(F)c2F)ncn1 [Example 111, (R)-6-(3-(2,3-difluorophenyl)isoxazolidin-2-yl)-N-(2-methoxy-5-(1-methyl-1H-pyrazol-4-yl)-4-(7-oxa-2-azaspiro[3.5]nonan-2-yl)phenyl)pyrimidin-4-amine] | 100 to 1000
COc1cc(N2CCN(C)CC2)c(-c2cnn(C)c2)cc1Nc1cc(N2OCC[C@@H]2c2cccc(F)c2F)ncn1 [Example 98, (R)-6-(3-(2,3-difluorophenyl)isoxazolidin-2-yl)-N-(2-methoxy-5-(1-methyl-N-pyrazol-4-yl)-4-(4-methylpiperazin-1-yl)phenyl)pyrimidin-4-amine] | < 100
CCOc1cc(N2C[C@@H](C)O[C@@H](C)C2)c(-c2cnn(C)c2)cc1Nc1cc(N2OCC[C@@H]2c2cccc(F)c2F)ncn1 [Example 104, 6-((R)-3-(2,3-difluorophenyl)isoxazolidin-2-yl)-N-(4-((25,6R)-2,6-dimethylmorpholino)-2-ethoxy-5-(1-methyl-1H-pyrazol-4-yl)phenyl)pyrimidin-4-amine] | 100 to 1000
CC(C)Oc1cc(N2C[C@H](C)O[C@@H](C)C2)c(-c2cnn(C)c2)cc1Nc1cc(N2OCC[C@@H]2c2cccc(F)c2F)ncn1 [Example 105, 6-((R)-3-(2,3-difluorophenyl)isoxazolidin-2-yl)-N--(4-((2S,6S)-2,6-dimethylmorpholino)-2-isopropoxy-5-(1-methyl-1H-pyrazol-4-yl)phenyl)pyrimidin-4-amine] | 100 to 1000
COc1cc2c(cc1Nc1cc(N3OCC[C@@H]3c3cccc(F)c3F)ncn1)-c1cnn(C)c1CCN2C(C)C [Example 47, (R)-N-(6-(3-(2,3-difluorophenyl)isoxazolidin-2-yl)pyrimidin-4-yl)-6-isopropyl-8-methoxy-3-methyl-3,4,5,6-tetrahydrobenzo[b]pyrazolo [4,3-d]azepin-9-amine] | 100 to 1000
COc1cc(N2CCOC3(CC3)C2)c(-c2cnn(C)c2)cc1Nc1cc(N2OCC[C@@H]2c2cccc(F)c2F)ncn1 [Example 43, (R)-6-(3-(2,3-difluorophenyl)isoxazolidin-2-yl)-N-(2-methoxy-5-(1-methyl-1H-pyrazol-4-yl)-4-(4-oxa-7-azaspiro[2.5]octan-7-yl)phenyl)pyrimidin-4-amine] | 100 to 1000
COc1cc(N2CCOCC2)c(-c2cn(C)nc2F)cc1Nc1cc(N2OCC[C@@H]2c2cccc(F)c2F)ncn1 [Example 16, (R)-6-(3-(2,3-difluorophenyl)isoxazolidin-2-yl)-N-(5-(3-fluoro-1-methyl-1H-pyrazol-4-yl)-2-methoxy-4-morpholinophenyl)pyrimidin-4-amine] | < 100
COc1cc(N2CCC(N3CCOC(C(F)(F)F)C3)CC2)c(-c2cnn(C)c2)cc1Nc1cc(N2OCC[C@@H]2c2cccc(F)c2F)ncn1 (stereo partly drawn) [Example 73, 6-((R)-3-(2,3-difluorophenyl)isoxazolidin-2-yl)-N-(2-methoxy-5-(1-methyl-1H-pyrazol-4-yl)-4-(4-(2-(trifluoromethyl)morpholino)piperidin-1-yl)phenyl)pyrimidin-4-amine] | 100 to 1000
COc1cc(C23CCOCC2C3)c(-c2cnn(C)c2)cc1Nc1cc(N2OCC[C@@H]2c2cccc(F)c2F)ncn1 (stereo partly drawn) [Example 59, N-(4-(3-oxabicyclo[4.1.0]heptan-6-yl)-2-methoxy-5-(1-methyl-1H-pyrazol-4-yl)phenyl)-6-((R)-3-(2,3-difluorophenyl)isoxazolidin-2-yl)pyrimidin-4-amine] | 100 to 1000
COc1cc(N2CCN(C)CC2)c(-c2cnn(C3CC3)c2)cc1Nc1cc(N2OCC[C@@H]2c2cccc(F)c2F)ncn1 [Example 99, (R)-N-(5-(1-cyclopropyl-1H-pyrazol-4-yl)-2-methoxy-4-(4-methylpiperazin-1-yl)phenyl)-6-(3-(2,3-difluorophenyl)isoxazolidin-2-yl)pyrimidin-4-amine] | < 100
COc1cc(N2CCC3(CCC(OC)CC3)CC2)c(-c2cnn(C)c2)cc1Nc1cc(N2OCC[C@@H]2c2cccc(F)c2F)ncn1 [Example 42, (R)-6-(3-(2,3-difluorophenyl)isoxazolidin-2-yl)-N-(2-methoxy-4-(9-methoxy-3-azaspiro[5.5]undecan-3-yl)-5-(1-methyl-1H-pyrazol-4-yl)phenyl)pyrimidin-4-amine] | 100 to 1000
COc1cc(N2CCC(C)(OC)CC2)c(-c2cnn(C)c2)cc1Nc1cc(N2OCC[C@@H]2c2cccc(F)c2F)ncn1 [Example 109, (R)-6-(3-(2,3-difluorophenyl)isoxazolidin-2-yl)-N-(2-methoxy-4-(4-methoxy-4-methylpiperidin-1-yl)-5-(1-methyl-1H-pyrazol-4-yl)phenyl)pyrimidin-4-amine] | < 100
COc1cc(N2CC[C@H](OC)[C@H](F)C2)c(-c2cnn(C)c2)cc1Nc1cc(N2OCC[C@@H]2c2cccc(F)c2F)ncn1 [Example 67, 6-((R)-3-(2,3-difluorophenyl)isoxazolidin-2-yl)-N-(4-((3R,4S)-3-fluoro-4-methoxypiperidin-1-yl)-2-methoxy-5-(1-methyl-1H-pyrazol-4-yl)phenyl)pyrimidin-4-amine] | < 100
COc1cc(N2CC[C@@H](OC)[C@@H](F)C2)c(-c2cnn(C)c2)cc1Nc1cc(N2OCC[C@@H]2c2cccc(F)c2F)ncn1 [Example 66, 6-((R)-3-(2,3-difluorophenyl)isoxazolidin-2-yl)-N-(4-((3,4R)-3-fluoro-4-methoxypiperidin-1-yl)-2-methoxy-5-(1-methyl-1H-pyrazol-4-yl)phenyl)pyrimidin-4-amine] | 100 to 1000
CN1CCN(C2CCN(c3c(-c4cnn(C)c4)cc(Nc4cc(N5OCC[C@@H]5c5cccc(F)c5F)ncn4)c4c3CCO4)CC2)CC1 [Example 112, (R)-6-(3-(2,3-difluorophenyl)isoxazolidin-2-yl)-N-(5-(1-methyl-1H-pyrazol-4-yl)-4-(4-(4-methylpiperazin-1-yl)piperidin-1-yl)-2,3-dihydrobenzofuran-7-yl)pyrimidin-4-amine] | 100 to 1000
COc1cc(N2CCC3CCN(C)C3C2)c(-c2cnn(C)c2)cc1Nc1cc(N2OCC[C@@H]2c2cccc(F)c2F)ncn1 (stereo partly drawn) [Example 62, 6-((R)-3-(2,3-difluorophenyl)isoxazolidin-2-yl)-N-(2-methoxy-5-(1-methyl-1H-pyrazol-4-yl)-4-(1-methyloctahydro-6H-pyrrolo[2,3-c]pyridin-6-yl)phenyl)pyrimidin-4-amine] | < 100
COc1cc(N2C3COCC2C3)c(-c2cnn(C)c2)cc1Nc1cc(N2OCC[C@@H]2c2cccc(F)c2F)ncn1 [Example 44, N-(4-(3-oxa-6-azabicyclo[3.1.1]heptan-6-yl)-2-methoxy-5-(1-methyl-1H-pyrazol-4-yl)phenyl)-6-((R)-3-(2,3-difluorophenyl)isoxazolidin-2-yl)pyrimidin-4-amine] | 100 to 1000
COc1cc(N2CCC(N3CC(F)(F)C3)CC2)c(-c2cnn(C)c2)cc1Nc1cc(N2OCC[C@@H]2c2cccc(F)c2F)ncn1 [Example 55, (R)-N-(4-(4-(3,3-difluoroazetidin-1-yl)piperidin-1-yl)-2-methoxy-5-(1-methyl-1H-pyrazol-4-yl)phenyl)-6-(3-(2,3-difluorophenyl)isoxazolidin-2-yl)pyrimidin-4-amine] | < 100
COc1cc(N2CCC(N3CCOCC3)CC2)c(-c2cnn(C)c2)cc1Nc1cc(N2OCC[C@@H]2c2cccc(F)c2F)ncn1 [Example 46, (R)-6-(3-(2,3-difluorophenyl)isoxazolidin-2-yl)-N-(2-methoxy-5-(1-methyl-1H-pyrazol-4-yl)-4-(4-morpholinopiperidin-1-yl)phenyl)pyrimidin-4-amine] | < 100

Tested on: Ba/F3 cells expressing EGFR L858R/C797S (EGFR LC)
Experiment: Inhibition of proliferation of Ba/F3 cells expressing EGFR L858R/C797S (CellTiter-Glo, 72 h)
Assay type: cell-based
Settings: Mus musculus, BaF3, 72 hours treatment
Experimental: as §1, §2, §3

SMILES | GI50 [nM]
COc1cc(N2CCC3(CC2)CC3(F)F)c(-c2cnn(C)c2)cc1Nc1cc(N2OCC[C@@H]2c2cccc(F)c2F)ncn1 [Example 32, (R)-N-(4-(1,1-difluoro-6-azaspiro[2.5]octan-6-yl)-2-methoxy-5-(1-methyl-1H-pyrazol-4-yl)phenyl)-6-(3-(2,3-difluorophenyl)isoxazolidin-2-yl)pyrimidin-4-amine] | 100 to 1000
COc1cc(N2CCC3(CC2)CCN(C(C)(C)CF)CC3)c(-c2cn(C)nc2F)cc1Nc1cc(N2OCC[C@@H]2c2cccc(F)c2F)ncn1 [Example 1, (R)-6-(3-(2,3-difluorophenyl)isoxazolidin-2-yl)-N-(5-(3-fluoro-1-methyl-1H-pyrazol-4-yl)-4-(9-(1-fluoro-2-methylpropan-2-yl)-3,9-diazaspiro[5.5]undecan-3-yl)-2-methoxyphenyl)pyrimidin-4-amine] | < 100
COc1cc(N2CCC3(CC2)CCN(C(C)(C)CF)CC3)c(-c2cnn(C)c2)cc1Nc1cc(N2OCC[C@@H]2c2ccccc2)ncn1 [Example 10, (R)-N-(4-(9-(1-fluoro-2-methylpropan-2-yl)-3,9-diazaspiro[5.5]undecan-3-yl)-2-methoxy-5-(1-methyl-1H-pyrazol-4-yl)phenyl)-6-(3-phenylisoxazolidin-2-yl)pyrimidin-4-amine] | < 100
